Patent publication US20180230166A1 (Merck Sharp & Dohme Corp., priority 2015, published 2018)

What was measured:
[1] = Phase III outcomes trial, cited from earlier work
[2] = cited from earlier work
[3] = torcetrapib and atorvastatin concomitantly, compared with atorvastatin alone; cited from earlier work
[4] = biological target: T1, endogenous CETP from serum (Homo sapiens, UniProt P11597); assay: RTA assay in 95% human serum (95% RTA), CETP-catalyzed CE and TG transfer; assay type: biochemical; conditions: RTA assay in 95% human serum; read-out: IC50
T1 construct: yielding a concentration of approximately 15 nM endogenous CETP in the assay; from tissue; host or cells: human serum (95% of the assay volume)
T1 sequence (P11597 18-493): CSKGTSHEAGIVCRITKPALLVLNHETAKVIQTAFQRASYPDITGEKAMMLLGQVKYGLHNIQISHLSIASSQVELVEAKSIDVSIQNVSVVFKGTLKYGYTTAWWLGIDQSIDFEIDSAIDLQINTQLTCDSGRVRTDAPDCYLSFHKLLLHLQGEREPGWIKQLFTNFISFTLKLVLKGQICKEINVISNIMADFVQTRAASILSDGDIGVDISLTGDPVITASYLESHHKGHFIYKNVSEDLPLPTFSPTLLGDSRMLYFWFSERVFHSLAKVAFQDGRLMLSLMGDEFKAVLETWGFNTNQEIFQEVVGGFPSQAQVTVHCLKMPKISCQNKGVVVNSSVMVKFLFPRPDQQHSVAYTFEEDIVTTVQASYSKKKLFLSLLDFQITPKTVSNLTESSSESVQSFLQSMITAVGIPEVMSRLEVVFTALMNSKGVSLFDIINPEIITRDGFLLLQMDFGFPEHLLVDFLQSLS
Procedure: Reagents and sources are: [3H] cholesteryl oleate (GE #TRK.886), [3H] Triolein (Perkin-Elmer NET-431), Butylated hydroxyl toluene (Aldrich, #D4740-4), DOPC (Sigma, #P6354), Sodium Bromide (Fisher scientific #S255-500), PEG 8000 (Fisher, #BP233-1), and human HDL (Intracel Corp #RP-036).
Both assays measure the transfer of [3H] cholesteryl oleate or [3H] triolein from exogenous LDL to HDL.
Radiolabeled donor particles are generated by first combining 100 μl of 200 μM butylated hydroxyl toluene in CHCl3, 216 μL of 21.57 mM DOPC in EtOH, and either 500 μCi [3H]-triolein (Perkin Elmer #NET-431) or 500 μCi [3H]-cholesteryl oleate (GE #TRK886) in a glass tube. Reagents are mixed, dried under nitrogen, and then resuspended in 2 mL of 50 mM Tris, 27 μM EDTA at pH 7.4. After a brief vortex, the solution is sonicated until clear and mixed with 20 mL of fresh human serum. The mixture is incubated overnight at 37° C. The [3H] labeled LDL substrate is separated at 1.063 g/ml density by sequential ultracentrifugal flotation in NaBr according to the method of Havel, Eder, et al., 1955, and Chapman, Goldstein, et al., 1981. Once isolated the particles are dialyzed 3× in CETP buffer (50 mM Tris, pH 7.4, 100 mM NaCl, 1 mM EDTA). Human HDL is purchased from Intracel and used as the acceptor particles.
Transfer assays are performed in a 96-well v-bottom polypropylene plate. […] 1 μL of each test compound diluted in DMSO is added to 47 μL of assay cocktail per well and incubated at 37° C. for 1 hour. To initiate the transfer reaction, 2 μL radiolabeled LDL is added. After an additional 60 min of incubation at 37° C., the transfer action is terminated by precipitation of LDL with an equal volume of 20% W/V PEG 8000. The plates are centrifuged at 2000 rpm for 30 minutes at 4° C. A 40 μL aliquot of the HDL-containing supernatant is transferred to a Packard Optiplate™ with 200 μL of MicroScint™ 20. After mixing, plates are counted by liquid scintillation. Counts present in the supernatant for blanks (wells containing only HDL acceptor, CETP buffer and DMSO) are subtracted from those containing test compounds and used to correct for non-specific transfer.
For the transfer assay using endogenous CETP from serum (95% RTA), the same procedure is used except that human serum is added such that a final concentration of serum of 95% of the total assay volume is achieved, yielding a concentration of approximately 15 nM endogenous CETP in the assay. This is then combined with HDL and CETP buffer and the reaction proceeds as above and is terminated as described.
Comparison of the counts of samples with inhibitors to an uninhibited (DMSO only) positive control yield a percent inhibition. A plot of percent inhibition vs. log of inhibitor concentration, fit to a Sigmoidal 4 parameter equation is used to calculate IC50.
Starting materials are commercially available or are made using known procedures or as shown below. The examples may be synthesized using the general schemes provided below. The data reported for the examples below were obtained using the RTA assay in 95% human serum. […] When compounds of Formula I are mentioned herein, such compounds include compounds defined generically by Formula I and also the specific examples disclosed herein.

[5] = patients on anacetrapib with baseline statin therapy, compared with patients treated with just a statin

CCC(CC)CC1(C(=O)Nc2ccccc2SC(=O)C(C)C)CCCCC1 [dalcetrapib]
clinical benefit (interim data) ([1]; terminated early): did not show a clinical benefit
safety issues [1]: no safety issues detected

COc1cc(F)c(C(C)C)cc1-c1ccc(C(F)(F)F)cc1CN1C(=O)O[C@H](c2cc(C(F)(F)F)cc(C(F)(F)F)c2)[C@@H]1C [anacetrapib]
decrease of LDL-C [2, 5]: 40%
increase of HDL-C [2, 5]: 138%
increase in mortality ([2]; patients treated with anacetrapib, DEFINE trial): unlikely

CCOC(=O)N1c2ccc(C(F)(F)F)cc2[C@@H](N(Cc2cc(C(F)(F)F)cc(C(F)(F)F)c2)C(=O)OC)C[C@H]1CC [torcetrapib]
incidence of mortality [3]: higher incidence of mortality

COc1cc(F)c(C(C)C)cc1-c1ccc(C(F)(F)F)cc1[C@@H]1CC[C@H]2[C@@H](c3cc(F)cc(C(F)(F)F)c3)SC(=O)N12 [Example 7, (1R,5S,7aS)-5-[4′-fluoro-2′-methoxy-5′-(1-methylethyl)-4-(trifluoromethyl)biphenyl-2-yl]-1-[3-fluoro-5-(trifluoromethyl)phenyl]tetrahydro-1H-pyrrolo[1,2-c][1,3]thiazol-3-one]
IC50 [4]: 2000 nM

COc1ncc(-c2c(C)cc(C(=O)O)cc2C)cc1-c1ccc(C(F)(F)F)cc1[C@@H]1CC[C@H]2[C@@H](c3cc(F)cc(C(F)(F)F)c3)CC(=O)N12 [Example 17, 4-{5-[2-{(3S,7R,7aS)-7-[3-fluoro-5-(trifluoromethyl)phenyl]-5-oxohexahydro-1H-pyrrolizin-3-yl}-4-(trifluoromethyl)phenyl]-6-methoxypyridin-3-yl}-3,5-dimethylbenzoic acid]
IC50 [4]: 328 nM

COc1ncc(-c2c(C)cc(C(=O)O)cc2C)cc1-c1ccc(C(F)(F)F)cc1[C@@H]1CC[C@H]2[C@@H](c3ccnc(C(F)(F)F)c3)CC(=O)N12 [Example 21, 4-{6-methoxy-5-[2-{(3S,7R,7aS)-5-oxo-7-[2-(trifluoromethyl)pyridin-4-yl]hexahydro-1H-pyrrolizin-3-yl}-4-(trifluoromethyl)phenyl]pyridin-3-yl}-3,5-dimethylbenzoic acid]
IC50 [4]: 2900 nM
